The text below walks through data of patent publication US9176124B2, “Method for measurement of equol in biological sample by immunoassay, kit for the measurement, and method for determination of equol production ability of subject” (OTSUKA PHARMACEUTICAL CO., LTD., priority 2009, dated 2015).

In assay [1] the test system is anti-equol rabbit antiserum (primary antibody). Briefly: Cross-reactivity of the primary antibody by competitive ELISA (Test Example 2). The class given is binding. Conditions: (IC20 of S-equol/IC20 of each isoflavone, etc.)×100, S-equol assumed 100%, horseradish peroxidase-labeled S-equol as labeled antigen, samples in 100% charcoal-treated human serum. From the text:
The above cross-reactivity can be explained as follows. Specifically, the above cross-reactivity indicates a ratio (%) of the concentration (IC20) of unlabeled S-equol at which the binding reaction of labeled S-equol to the anti-equol antibody can be inhibited by 20%, to the concentration (IC20) of each isoflavone and the like at which the binding reaction of labeled S-equol to the anti-equol antibody can be inhibited by 20%. More specifically, in the competitive reaction between labeled S-equol and unlabeled S-equol, the concentration of unlabeled S-equol at which the binding of labeled S-equol to the antibody is 80 is determined, assuming that the binding of labeled S-equol alone to the antibody is 100. Similarly, each unlabeled isoflavone and the like are competitively reacted with labeled S-equol, and the concentration of each isoflavone and the like at which binding of labeled S-equol to the antibody is 80 is determined.
The thus-determined ratio (expressed in percentage) between the concentration (IC20) of the unlabeled S-equol and the concentration (IC20) of each isoflavone and the like is referred to as the cross-reactivity. This is represented by the following formula: Cross-reactivity (%)=(IC20 of S-equol/IC20 of each isoflavone, etc.)×100
Herein, the cross-reactivity rate is determined by competitive ELISA, using S-equol as the standard antigen used for the preparation of a standard curve, as well as the labeled antigen that competes with equol in a biological sample.
In this Test Example, the cross-reactivity of the primary antibody was examined for the case where competitive ELISA was employed and S-equol was used as both the standard antigen and the labeled antigen. Specifically, the cross-reactivity was examined as follows.
Each of the isoflavones and the like shown in the later-described Table 4 was dissolved in 100% charcoal-treated human serum, and the resulting solution was used as a sample.
An anti-equol rabbit antiserum was used as the primary antibody, as in Example 1. The antiserum was suitably diluted with the later-described antiserum dilution buffer, and used in the test.
A goat anti-rabbit IgG antibody was used as a secondary antibody, as in Example 1. The antibody was immobilized to a solid phase as in Example 1, thus preparing a plate containing immobilized goat anti-rabbit IgG antibody.
Horseradish peroxidase-labeled S-equol was used as a labeled antigen, as in Example 1.
S-equol was used as a standard antigen, as in Example 1. Note that a standard equol solution in the forth of a mixed solution of S-equol (0, 30, 90, 270, or 810 ng/mL) and 100% charcoal-treated human serum was used.
A concentration dilution series was prepared for each of the isoflavones and the like, and for unlabeled S-equol. The adsorption by each of the isoflavones and the like, and the adsorption by unlabeled S-equol in the competitive reaction were measured from when the concentrations of these substances were 0 to when the concentrations of these substances were added in excess amounts. Each of the thus-obtained measured values was checked against a standard curve obtained from the dilution series of the standard antigen (S-equol), so as to compare the inhibition of the reaction based on each calculated value. Thereby, the concentration (IC20) of each of the isoflavones and the like, as well as the concentration (IC20) of unlabeled S-equol, at which the binding reaction of labeled S-equol to the anti-equol antibody is inhibited by 20%, were determined.
The competitive reaction was performed using competitive ELISA by a procedure similar to that in Example 1. Further, horseradish peroxidase was used as a labeling substance.
The ratio (expressed in percentage) of the thus-obtained concentration of each of the isoflavones and the like to the thus-obtained concentration of unlabeled S-equol was regarded as the cross-reactivity. […]

For assay [2], the system named is Labmaster Equol TR-FIA. Conditions: heretofore known kit; cited from earlier work.
Assay [3] has as its system Labmaster Equol TR-FIA. Briefly: Cross-reactivity of the known kit Labmaster Equol TR-FIA. The class given is binding. Conditions: with daidzein. From the text:
Further, for example, when Labmaster Equol TR-FIA, which is a heretofore known kit manufactured by Labmaster, is used, the cross-reactivity rate with daidzein is 0.8% (see labmaster.fi/products/tr-fia-kitS-equol-tr-fia.htm), and the cross-reactivity of the kit is 10 times as high as that of the present kit.

The next assay deals with monoclonal antibody. The note with it: Clinical Chemistry 53: 748-756, 2007; cited from earlier work.

Consider `O=c1cc(-c2ccc(O)cc2)oc2cc(O)cc(O)c12` [Apigenin], for which, in assay [1], the “Cross-reactivity Rate” value is on record as 0.00%. Same read-out and setting: the result for `COc1ccc(-c2coc3cc(O)cc(O)c3c2=O)cc1` [Biochanin A] reads 0.11%. Turning to `O=c1c(-c2ccc(O)cc2)coc2cc(O)ccc12` [Daidzein], the Cross-reactivity Rate is reported as 0.8% in the assay on Labmaster Equol TR-FIA [2], 0.08% in assay [1], 0.08% in assay [1] (listed as daidzein) and less than 0.04% with monoclonal antibody. For the same molecule, the “cross-reactivity of the Labmaster kit relative to the present kit” value in the assay on Labmaster Equol TR-FIA [3] stood at 10 times.

Turning to `O=c1c(-c2ccc(O)cc2)coc2cc(O[C@@H]3O[C@H](CO)[C@@H](O)[C@H](O)[C@H]3O)ccc12` [Daidzin], the “Cross-reactivity Rate” value in assay [1] and in assay [1] (listed as daidzin) was 0.06% in each case.

As to `Oc1ccc(C2=Cc3ccc(O)cc3OC2)cc1` [Dehydroequol], the Cross-reactivity Rate in the assay with Labmaster Equol TR-FIA [2] is on record as 42.3%; in assay [1] it was 0.33%; in assay [1] (listed as dehydroequol) it was 0.33%. For `O=C1c2ccc(O)cc2OCC1c1ccc(O)cc1` (centres unmarked) [Dihydrodaizein], the Cross-reactivity Rate was 4.0% in the assay with Labmaster Equol TR-FIA [2], 1.03% in assay [1] and 1.03% in assay [1] (listed as dihydrodaidzein).

In the case of `O=c1c(-c2ccc(O)cc2)coc2cc(O)cc(O)c12` [Genistein], the “Cross-reactivity Rate” value in assay [1] was determined as 0.05%. On the same count and under the same terms, the result for `O=c1c(-c2ccc(O)cc2)coc2cc(O[C@@H]3O[C@H](CO)[C@@H](O)[C@H](O)[C@H]3O)cc(O)c12` [Genistin] reads 0.06%. In the case of `COc1cc2c(=O)c(-c3ccc(O)cc3)coc2cc1O` [Glycitein], the “Cross-reactivity Rate” value in assay [1] came to 0.03%.

Consider `COc1cc2c(=O)c(-c3ccc(O)cc3)coc2cc1O[C@@H]1O[C@H](CO)[C@@H](O)[C@H](O)[C@H]1O` [Glycitin], for which the “Cross-reactivity Rate” value in assay [1] is reported as 0.02%. As to `O=c1cc(-c2ccc(O)c(O)c2)oc2cc(O)cc(O)c12` [Luteolin], in assay [1], the “Cross-reactivity Rate” value is on record as 0.00%. For `Oc1ccc([C@@H]2COc3cc(O)ccc3C2)cc1` [R-Equol], the “Cross-reactivity Rate” value in assay [1] and in assay [1] (listed as R-equol) was 13.24% each time. For the molecule `Oc1ccc([C@H]2COc3cc(O)ccc3C2)cc1` [S-Equol], the “Cross-reactivity Rate” value in assay [1] is 100.00%.
